From patent US20240262815A1, “HETEROARYL DERIVATIVE, METHOD FOR PREPARING SAME, AND PHARMACEUTICAL COMPOSITION COMPRISING SAME AS ACTIVE INGREDIENT” (VORONOI INC., priority 2021, published 2024)

Assays:
BT-474 cancer cells = assay: Inhibitory activity against proliferation of BT-474 cancer cells (CellTiter-Glo); type: cell-based; conditions: Homo sapiens, BT-474 ErbB2-overexpressing cancer cells, 120 hours after treatment
Experimental: To evaluate the inhibitory activity of a compound according to the present invention against the proliferation of ErbB2-overexpressing cancer cells, the following experiment were performed.
10% FBS-added McCOY'S 5A was used for SK-BR-3 cancer cells. 20% FBS-added RPMI-1640 was used for BT-474 cancer cells. Transduced Ba/F3 cells were cultured in a RPMI-1640 medium to which 1 μg/ml puromycin (Invitrogen) was added.
48 hours before compound treatment, each type of the SK-BR-3 and BT-474 cells were seeded at 5,000 cells/well in a white clear bottom 96 well plate (Corning). The compound was diluted in dimethyl sulfoxide (SK-BR-3: 3-fold dilution, a total of 12 concentrations, BT-474: […], a total of 12 concentrations) and injected at 1 μl to have the final concentration of 0.2 nM to 5 μM. As for measurement of live cells, 120 hours after treatment with the compound, a CellTiter-Glo luminescent cell-viability reagent (Promega) was used to store the cells at room temperature for 10 minutes, followed by measurement of luminescence using a reader (SynergyNeo, Biotek). Each test was repeated three times.
The result values were calculated as a cell growth rate (%) compared to the control group. A graph was plotted using the GraphPad Prism version 8.3.0 program, and GI50 values were calculated.

SK-BR-3 cancer cells = assay: Inhibitory activity against proliferation of SK-BR-3 cancer cells (CellTiter-Glo); type: cell-based; conditions: Homo sapiens, SK-BR-3, 120 h, ErbB2-overexpressing SK-BR-3 cells, 120 hours after treatment
In short: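 Cells seeded 48 h before dosing (SK-BR-3 in McCOY'S 5A + 10% FBS; BT-474 in RPMI-1640 + 20% FBS), then exposed 120 h to 12 concentrations, 0.2 nM-5 μM final. Viability by CellTiter-Glo luminescence; GI50 from growth rate vs control, triplicate runs.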

With `C=CC(=O)Nc1cc(Nc2cc(N3OCC[C@@H]3c3ccc(F)c(-c4cccc(F)c4)c3)ncn2)c(OC)cc1N(C)CCN(C)C` [Example 310, (R)-N-(5-((6-(3-(3′,6-difluoro-[1,1′-biphenyl]-3-yl)-isoxazolidin-2-yl)-pyrimidin-4-yl)-amino)-2-((2-(dimethylamino)-ethyl)(methyl)-amino)-4-methoxy-phenyl)acrylamide] the GI50 (BT-474 cancer cells) was < 50 nM and the GI50 (SK-BR-3 cancer cells) was < 50 nM.

`C=CC(=O)Nc1cc(Nc2cc(N3OCC[C@@H]3c3cccc(-c4ccc(OC)nc4)c3)ncn2)c(OC)cc1N1CCN(C)CC1` [Example 298, (R)-N-(4-methoxy-5-((6-(3-(3-(6-methoxypyridin-3-yl)phenyl)-isox-azolidin-2-yl)-pyrimidin-4-yl)-amino)-2-(4-meth-ylpiperazin-1-yl)-phenyl)acrylamide] was tested, and the GI50 (BT-474 cancer cells) was < 50 nM and the GI50 (SK-BR-3 cancer cells) was < 50 nM.

In the case of `C=CC(=O)Nc1cc(Nc2cc(N3OCC[C@@H]3c3cccc(-c4cccc(C(F)(F)F)c4F)c3)ncn2)c(OC)cc1N(C)CCN(C)C` [Example 280, (R)-N-(2-((2-(dimethylamino)-ethyl)(methyl)-amino)-5-((6-(3-(2′-fluoro-3′-(trifluoromethyl)-[1,1′-biphenyl]-3-yl)isoxazolidin-2-yl)pyrimidin-4-yl)-amino)-4-methoxy-phenyl)acrylamide], the GI50 (BT-474 cancer cells) is reported as < 50 nM and the GI50 (SK-BR-3 cancer cells) is reported as < 50 nM.

With `C=CC(=O)Nc1cc(Nc2cc(N3OCC[C@@H]3c3cccc(-c4ccccc4)c3)ncn2)c(OC)cc1N1CCN(CC)CC1` [Example 216, (R)-N-(5-((6-(3-([1,1′-biphenyl]-3-yl)isoxazolidin-2-yl)pyrimidin-4-yl)-amino)-2-(4-ethyl-piperazin-1-yl)-4-methoxyphenyl)-acrylamide] the GI50 (BT-474 cancer cells) was < 50 nM and the GI50 (SK-BR-3 cancer cells) was < 50 nM.

In the case of `C=CC(=O)Nc1cc(Nc2cc(N3OCC[C@@H]3c3cc(F)cc(Oc4cccc(F)c4)c3)ncn2)c(OC)cc1N1CCC(N(C)C)CC1` [Example 224, (R)-N-(2-(4-(dimethylamino)-piperidin-1-yl)-5-((6-(3-(3-fluoro-5-(3-fluorophenoxy)-phenyl)isoxazol-idin-2-yl)pyrim-idin-4-yl)amino)-4-methoxyphen-yl)acrylamide], the GI50 (BT-474 cancer cells) is reported as < 50 nM and the GI50 (SK-BR-3 cancer cells) is reported as < 50 nM.

With `C=CC(=O)Nc1cc(Nc2cc(N3OCC[C@@H]3c3cccc(-c4ccccc4)c3)ncn2)c(OC)cc1N1CCC(N2CCN(C3CC3)[C@@H](C)C2)CC1` [Example 231, N-(5-((6-((R)-3-([1,1′-biphenyl]-3-yl)isoxazolidin-2-yl)pyrimidin-4-yl)amino)-2-(4-((S)-4-cycloprop-yl-3-methylpiper-azin-1-yl)piperidin-1-yl)-4-methoxy-phenyl)acrylamide] the GI50 (BT-474 cancer cells) was < 50 nM and the GI50 (SK-BR-3 cancer cells) was < 50 nM.

With `C=CC(=O)Nc1cc(Nc2cc(N3OCC[C@@H]3c3cccc(-c4cccc(F)c4)c3)ncn2)c(OC)cc1N1CC2(C1)CN(C1COC1)C2` [Example 341, (R)-N-(5-((6-(3-(3′-fluoro-[1,1′-biphenyl]-3-yl)-isoxazolidin-2-yl)-pyrimidin-4-yl)-amino)-4-methoxy-2-(6-(oxetan-3-yl)-2,6-diazaspiro-[3.3]heptan-2-yl)-phenyl)acrylamide] the GI50 (BT-474 cancer cells) was < 50 nM.

With `C=CC(=O)Nc1cc(Nc2cc(N3OCC[C@@H]3c3cccc(-c4ccc(F)cc4F)c3)ncn2)c(OC)cc1N1CCN(C)[C@@H](C)C1` [Example 327, N-(5-((6-((R)-3-(2′,4′-difluoro-[1,1′-biphenyl]-3-yl)-isoxazolidin-2-yl)-pyrimidin-4-yl)-amino)-2-((S)-3,4-dimethylpiperazin-1-yl)-4-methoxy-phenyl)acrylamide] the GI50 (BT-474 cancer cells) was < 50 nM.

For `C=CC(=O)Nc1cc(Nc2cc(N3OCC[C@@H]3c3cccc(-c4cccc(F)c4)c3)ncn2)c(OC)cc1N1CCC2(CC1)CN(C)C2` [Example 343, (R)-N-(5-((6-(3-(3′-fluoro-[1,1′-biphenyl]-3-yl)-isoxazolidin-2-yl)-pyrimidin-4-yl)-amino)-4-methoxy-2-(2-methyl-2,7-diazaspiro[3.5]-nonan-7-yl)phen-yl)acrylamide], the GI50 (BT-474 cancer cells) was < 50 nM.

In the case of `C=CC(=O)Nc1cc(Nc2cc(N3OCC[C@@H]3c3cccc(-c4ccc(C#N)cc4)c3)ncn2)c(OC)cc1N1CCN(C)CC1` [Example 333, (R)-N-(5-((6-(3-(4′-cyano-[1,1′-biphenyl]-3-yl)-isoxazolidin-2-yl)-pyrimidin-4-yl)-amino)-4-methoxy-2-(4-methylpiper-azin-1-yl)phenyl)-acrylamide], the GI50 (BT-474 cancer cells) is reported as < 50 nM.

`C=CC(=O)Nc1cc(Nc2cc(N3OCC[C@@H]3c3cccc(-c4ccc(C(F)(F)F)cc4)c3)ncn2)c(OC)cc1N1CCN(C)CC1` [Example 332, (R)-N-(4-methoxy-2-(4-methylpiper-azin-1-yl)-5-((6-(3-(4′-(trifluoro-methyl)-[1,1′-bi-phenyl]-3-yl)-isoxazolidin-2-yl)-pyrimidin-4-yl)-amino)phenyl)-acrylamide] gave a GI50 (BT-474 cancer cells) of 50 to 500 nM.

`C=CC(=O)Nc1cc(Nc2cc(N3OCC[C@@H]3c3cccc(-c4cccc(C#N)c4)c3)ncn2)c(OC)cc1N1CCN(C)CC1` [Example 330, (R)-N-(5-((6-(3-(3′-cyano-[1,1′-biphenyl]-3-yl)-isoxazolidin-2-yl)-pyrimidin-4-yl)-amino)-4-methoxy-2-(4-methylpiper-azin-1-yl)phenyl)-acrylamide] was tested, and the GI50 (BT-474 cancer cells) was < 50 nM.

For `C=CC(=O)Nc1cc(Nc2cc(N3OCC[C@@H]3c3cccc(-c4cccc(F)c4)c3)ncn2)c(OC)cc1N1CCN(CCO)CC1` [Example 336, (R)-N-(5-((6-(3-(3′-fluoro-[1,1′-biphenyl]-3-yl)-isoxazolidin-2-yl)-pyrimidin-4-yl)-amino)-2-(4-(2-hydroxyethyl)-piperazin-1-yl)-4-methoxyphenyl)-acrylamide], the GI50 (BT-474 cancer cells) was < 50 nM.

`C=CC(=O)Nc1cc(Nc2cc(N3OCC[C@@H]3c3cccc(-c4cccc(F)c4)c3)ncn2)c(OC)cc1N1C[C@@H](C)N(C(=O)OC(C)(C)C)[C@@H](C)C1` [Example 328, tert-butyl (2S,6R)-4-(2-acrylamido-4-((6-((R)-3-(3′-fluoro-[1,1′-biphen-yl]-3-yl)isoxazol-idin-2-yl)pyrim-idin-4-yl)amino)-5-methoxyphenyl)-2,6-dimethylpiper-azine-1-carboxylate] was tested, and the GI50 (BT-474 cancer cells) was 50 to 500 nM.

With `C=CC(=O)Nc1cc(Nc2cc(N3OCC[C@@H]3c3cccc(-c4cccc(F)c4)c3)ncn2)c(OC)cc1N1C[C@@H](C)N[C@@H](C)C1` [Example 329, N-(2-((3S,5R)-3,5-dimethyl-piperazin-1-yl)-5-((6-((R)-3-(3′-fluoro-[1,1′-bi-phenyl]-3-yl)-isoxazolidin-2-yl)pyrimidin-4-yl)amino)-4-meth-oxyphenyl)acryl-amide] the GI50 (BT-474 cancer cells) was < 50 nM.

`C=CC(=O)Nc1cc(Nc2cc(N3OCC[C@@H]3c3cccc(-c4cccc(C(=O)OC)c4)c3)ncn2)c(OC)cc1N1CCN(C)CC1` [Example 338, methyl (R)-3′-(2-(6-((5-acrylamido-2-methoxy-4-(4-methylpiperazin-1-yl)phenyl)-amino)pyrimidin-4-yl)isoxazolidin-3-yl)-[1,1′-biphen-yl]-3-carboxylate] was tested, and the GI50 (BT-474 cancer cells) was < 50 nM.

`COc1cc(F)c(NC(=O)/C=C/CN(C)C)cc1Nc1cc(N2OCC[C@@H]2c2cccc(-c3cccc(F)c3)c2)ncn1` [Example 335, (R,E)-4-(dimethyl-amino)-N-(2-fluoro-5-((6-(3-(3′-fluoro-[1,1′-biphen-yl]-3-yl)isoxazol-idin-2-yl)pyrim-idin-4-yl)amino)-4-methoxyphen-yl)but-2-enamide] was tested, and the GI50 (BT-474 cancer cells) was < 50 nM.

In the case of `C=CC(=O)Nc1cc(Nc2cc(N3OCC[C@@H]3c3cccc(-c4cccc(F)c4F)c3)ncn2)c(OC)cc1N1CCN(C)[C@@H](C)C1` [Example 326, N-(5-((6-((R)-3-(2′,3′-difluoro-[1,1′-biphenyl]-3-yl)isoxazolidin-2-yl)pyrimidin-4-yl)amino)-2-((S)-3,4-dimethylpiper-azin-1-yl)-4-meth-oxyphenyl)acryl-amide], the GI50 (BT-474 cancer cells) is reported as < 50 nM.

With `C=CC(=O)Nc1cc(Nc2cc(N3OCC[C@@H]3c3cccc(-c4cccc(C(=O)N(C)C)c4)c3)ncn2)c(OC)cc1N1CCN(C)CC1` [Example 342, (R)-3′-(2-(6-((5-acrylamido-2-methoxy-4-(4-methylpiperazin-1-yl)phenyl)-amino)pyrimidin-4-yl)isoxazolidin-3-yl)-N,N-dimeth-yl-[1,1′-biphenyl]-3-carboxamide] the GI50 (BT-474 cancer cells) was < 50 nM.

With `C=CC(=O)Nc1cc(Nc2cc(N3OCC[C@@H]3c3cccc(-c4cccc(F)c4F)c3)ncn2)c(OC)cc1N1CCN(C2COC2)CC1` [Example 340, (R)-N-(5-((6-(3-(2′,3′-difluoro-[1,1′-biphenyl]-3-yl)isoxazolidin-2-yl)pyrimidin-4-yl)-amino)-4-methoxy-2-(4-(oxetan-3-yl)-piperazin-1-yl)-phenyl)acrylamide] the GI50 (BT-474 cancer cells) was < 50 nM.

For `C=CC(=O)Nc1cc(Nc2cc(N3OCC[C@@H]3c3cccc(-c4ccc(OC)nc4)c3)ncn2)c(OC)cc1N1CCN(C)[C@@H](C)C1` [Example 331, N-(2-((S)-3,4-dimethylpiperazin-1-yl)-4-methoxy-5-((6-((R)-3-(3-(6-methoxypyridin-3-yl)phenyl)isoxazol-idin-2-yl)pyrim-idin-4-yl)amino)-phenyl)acrylamide], the GI50 (BT-474 cancer cells) was < 50 nM.
